Experimental data taken from patent publication US11192869B2, “CFTR regulators and methods of use thereof” (THE REGENTS OF THE UNIVERSITY OF CALIFORNIA, priority 2015, dated 2021).
“Also recorded” adds a separate entry of the source.

Assays:
ocular surface = assay: Ocular surface potential difference measurements; assay type: in vivo, mouse; conditions: wild-type mice, 1-10 μM
Experimental: Ocular surface potential difference measurements. Open-circuit transepithelial PD were measured continuously in anesthetized mice in response to serial perfusions of different solutions over the ocular surface, as described (21). Mice were anesthetized with Avertin (2,2,2-tribromoethanol, 125 mg/kg intraperitoneal, Sigma-Aldrich, St. Louis, Mo., USA), and core temperature was maintained at 37° C. using a heating pad. Eyes were oriented with the cornea and conjunctiva facing upward and exposed by retracting the eyelid with cross-action forceps. Solutions were isosmolar (320±10 mOsM; compositions provided in ref. 21) and contained 10μ[…] □ indomethacin to prevent CFTR activation by prostaglandins. The ocular surface was perfused at 6 mL/min through plastic tubing using a multireservoir gravity pinch-valve system (ALA Scientific, Westbury, N.Y., USA) and variable-flow peristaltic pump (medium flow model; Fisher Scientific, Fair Lawn, N.J., USA). A probe catheter was fixed 1 mm above the cornea using a micropositioner and a suction cannula was positioned 3 mm from the orbit. The measuring electrode was in contact to the perfusion catheter and connected to a high-impedance voltmeter (IsoMilivolt Meter; WPI). The reference electrode was grounded via a winged 21-gauge needle filled with isosmolar saline, and inserted subcutaneously in the abdomen. Measuring and reference electrodes consisted of Ag/AgCl with 3 M KCl agar bridges.
Ocular surface potential difference measurements. Open-circuit transepithelial PD were measured continuously in anesthetized mice in response to serial perfusions of different solutions over the ocular surface, as described (21). Mice were anesthetized with Avertin (2,2,2-tribromoethanol, 125 mg/kg intraperitoneal, Sigma-Aldrich, St. Louis, Mo., USA), and core temperature was maintained at 37° C. using a heating pad. Eyes were oriented with the cornea and conjunctiva facing upward and exposed by retracting the eyelid with cross-action forceps. […]

[1] = In vitro metabolic stability; assay type: in vitro ADME, mouse
Experimental: In vitro metabolic stability. CFTRact-J027 (5 μM) was incubated for specified times at 37° C. with mouse liver microsomes (1 mg protein/ml; Sigma-Aldrich) in potassium phosphate buffer (100 mM) containing 1 mM NADPH, as described. The mixture was then chilled on ice, and 0.5 ml of ice-cold ethyl acetate was added. Samples were centrifuged for 15 min at 3000 rpm, the supernatant evaporated to dryness, and the residue was dissolved in 100 μL mobile phase (acetonitrile:water, 3:1) for LC/MS and assayed as described above.

[2] = Pharmacokinetics after ip or oral administration; assay type: in vivo, mouse
Experimental: Pharmacokinetics. All animal experiments were approved by UCSF Institutional Animal Care and Use Committee. Female CD1 mice were treated with 10 mg/kg CFTRact-J027 (saline containing 5% DMSO and 10% Kolliphor HS 15) either intraperitoneally (ip) or orally. Blood was collected at 15, 30, 60, 150, 240 and 360 min after treatment by orbital puncture and centrifuged at 5000 rpm for 15 min to separate plasma. Plasma samples (60 μL) were mixed with 300 μL acetonitrile and centrifuged at 13000 rpm for 20 min, and 90 μL of the supernatant was used for LC/MS. The solvent system consisted of a linear gradient from 5 to 95% acetonitrile over 16 min (0.2 ml/min flow). Mass spectra was acquired on a mass spectrometer (Waters 2695 and Micromass ZQ) using electrospray (+) ionization, mass ranging from 100 to 1500 Da, cone voltage 40 V. Calibration standards were prepared in plasma from untreated mice to which known amounts of CFTRact-J027 were added.

Nc1ccc([N+](=O)[O-])cc1-c1nc2ccccc2n(Cc2ccccc2)c1=O [CFTRact-J027, 3-(2-amino-5-nitrophenyl)-1-benzylquinoxalin-2(1H)-one]
change in ocular surface PD (in words) (ocular surface): large hyperpolarizations | original compound remaining ([1]; 60 min): 7% | hepatic/microsomal metabolism (in words) ([1]; liver microsomes): rapid in vitro metabolism; also recorded: rapid hepatic metabolism | elimination half-life ([1]; mouse liver microsomes, NADPH, 5 μM): ~21 min | elimination half-life of serum concentration ([2]; 10 mg/kg ip): ~16 min | bioavailability (in words) ([2]; 10 mg/kg oral): very low bioavailability; also recorded: minimal bioavailability | blood levels relative to EC50 for CFTR activation ([2]; 10 mg/kg oral): well below the EC50
